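Interpolation was linear, between the two tested concentrations surrounding the appropriate level; five concentrations were tested over 48 hours in 96-well plates. The concentration for 50% growth inhibition is given as GI50.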 Activity calls are given as the source filed them. Rule as the data show it: active = GI50 up to about 1.1 µM and inactive = higher.
Experiments:
Assay in all cases: inhibition of tumour cell growth, NCI panel, 48 h
786-0 = system: 786-0
A549 = system: A549
HCT-15 = system: HCT-15
IGROV-1 = system: IGROV-1
LOX IMVI = system: LOX IMVI
Malme-3M = system: Malme-3M
NCI-H226 = system: NCI-H226
NCI-H23 = system: NCI-H23
NCI-H522 = system: NCI-H522
OVCAR-4 = system: OVCAR-4
OVCAR-5 = system: OVCAR-5
OVCAR-8 = system: OVCAR-8
PC-3 = system: PC-3
SF-268 = system: SF-268
SK-MEL-2 = system: SK-MEL-2
SK-MEL-5 = system: SK-MEL-5
SNB-19 = system: SNB-19
TK-10 = system: TK-10
UACC-62 = system: UACC-62
UO-31 = system: UO-31

| SMILES | GI50 (786-0) | GI50 (A549) | GI50 (HCT-15) [µM] | GI50 (IGROV-1) | GI50 (LOX IMVI) | GI50 (Malme-3M) | GI50 (NCI-H226) | GI50 (NCI-H23) | GI50 (NCI-H522) | GI50 (OVCAR-4) | GI50 (OVCAR-5) | GI50 (OVCAR-8) | GI50 (PC-3) | GI50 (SF-268) | GI50 (SK-MEL-2) | GI50 (SK-MEL-5) | GI50 (SNB-19) | GI50 (TK-10) | GI50 (UACC-62) | GI50 (UO-31) |
| --- | --- | --- | --- | --- | --- | --- | --- | --- | --- | --- | --- | --- | --- | --- | --- | --- | --- | --- | --- | --- |
| Cc1nnc(N)nc1/C=C\c1ccc(Cl)cc1Cl | 40.7 µM (inactive) | 39.2 µM (inactive) | 23.3 | 16.3 µM (inactive) | 40.2 µM (inactive) | 23.8 µM (inactive) | 17.3 µM (inactive) | 33.7 µM (inactive) | 24.2 µM (inactive) | 34.5 µM (inactive) | 42.5 µM (inactive) | 27 µM (inactive) | 16.9 µM (inactive) | 34.8 µM (inactive) | 17 µM (inactive) | 30.9 µM (inactive) | 30.2 µM (inactive) | > 100 µM (inactive) | 30.8 µM (inactive) | 54.2 µM (inactive) |
| CN(C)P(=O)(Oc1occc1C(O)Cc1ccccc1)N(C)C (stereo not given) | > 100 µM (inactive) | > 100 µM (inactive) | > 100 | – | > 100 µM (inactive) | > 100 µM (inactive) | > 100 µM (inactive) | > 100 µM (inactive) | > 100 µM (inactive) | > 100 µM (inactive) | > 100 µM (inactive) | > 100 µM (inactive) | > 100 µM (inactive) | > 100 µM (inactive) | > 100 µM (inactive) | > 100 µM (inactive) | > 100 µM (inactive) | > 100 µM (inactive) | – | > 100 µM (inactive) |
| COc1cc(OC)cc(OCc2nc3cc(C(F)(F)F)ccc3nc2-c2ccccc2)c1 | > 100 µM (inactive) | > 100 µM (inactive) | > 100 | 0.809 µM (active) | > 100 µM (inactive) | > 100 µM (inactive) | 90.8 µM (inactive) | > 100 µM (inactive) | > 100 µM (inactive) | > 100 µM (inactive) | > 100 µM (inactive) | > 100 µM (inactive) | > 100 µM (inactive) | > 100 µM (inactive) | > 100 µM (inactive) | – | > 100 µM (inactive) | > 100 µM (inactive) | > 100 µM (inactive) | > 100 µM (inactive) |
| Cc1c(C)c2c(c(N)c1C#N)C(=O)N(NC(=O)c1ccccc1)C2=O | > 100 µM (inactive) | > 100 µM (inactive) | > 100 | > 100 µM (inactive) | > 100 µM (inactive) | > 100 µM (inactive) | > 100 µM (inactive) | – | > 100 µM (inactive) | > 100 µM (inactive) | > 100 µM (inactive) | > 100 µM (inactive) | > 100 µM (inactive) | > 100 µM (inactive) | > 100 µM (inactive) | > 100 µM (inactive) | > 100 µM (inactive) | > 100 µM (inactive) | > 100 µM (inactive) | 36.1 µM (inactive) |
| Cc1coc2c1CC1(C)C(CCC(O)C1C)C2 (stereo not given) | > 100 µM (inactive) | > 100 µM (inactive) | > 100 | > 100 µM (inactive) | > 100 µM (inactive) | > 100 µM (inactive) | > 100 µM (inactive) | > 100 µM (inactive) | > 100 µM (inactive) | > 100 µM (inactive) | > 100 µM (inactive) | > 100 µM (inactive) | > 100 µM (inactive) | > 100 µM (inactive) | > 100 µM (inactive) | > 100 µM (inactive) | > 100 µM (inactive) | > 100 µM (inactive) | > 100 µM (inactive) | – |
| Cc1nc2ccc(S(=O)(=O)O)cc2c(=O)n1-c1ccc(C(=O)NN2C(=O)C(Cl)C2c2cccs2)cc1 (stereo not given) | > 100 µM (inactive) | > 100 µM (inactive) | > 100 | – | > 100 µM (inactive) | > 100 µM (inactive) | > 100 µM (inactive) | > 100 µM (inactive) | > 100 µM (inactive) | 24.5 µM (inactive) | > 100 µM (inactive) | > 100 µM (inactive) | > 100 µM (inactive) | 20.7 µM (inactive) | 23.3 µM (inactive) | > 100 µM (inactive) | > 100 µM (inactive) | > 100 µM (inactive) | > 100 µM (inactive) | > 100 µM (inactive) |
| OCC1C(O)C(O)[C@@H]2SCCN12 (stereo not given in full) | > 100 µM (inactive) | > 100 µM (inactive) | > 100 | > 100 µM (inactive) | > 100 µM (inactive) | > 100 µM (inactive) | > 100 µM (inactive) | > 100 µM (inactive) | > 100 µM (inactive) | > 100 µM (inactive) | > 100 µM (inactive) | > 100 µM (inactive) | > 100 µM (inactive) | > 100 µM (inactive) | > 100 µM (inactive) | > 100 µM (inactive) | > 100 µM (inactive) | > 100 µM (inactive) | > 100 µM (inactive) | > 100 µM (inactive) |
| COC(=O)c1ccccc1C1CN=NC12Cc1ccccc1C2=O (stereo not given) | > 100 µM (inactive) | > 100 µM (inactive) | > 100 | > 100 µM (inactive) | 45.4 µM (inactive) | 74.5 µM (inactive) | > 100 µM (inactive) | > 100 µM (inactive) | 59.2 µM (inactive) | 52.4 µM (inactive) | > 100 µM (inactive) | 59.6 µM (inactive) | 34 µM (inactive) | > 100 µM (inactive) | > 100 µM (inactive) | 42.4 µM (inactive) | > 100 µM (inactive) | > 100 µM (inactive) | 42.1 µM (inactive) | 34.2 µM (inactive) |
| CCOC(=O)C1=C(C)N(CC(C)C)C2(O)C(OC)CC(=O)C3C(=O)N(c4ccccc4)C(=O)C132 (stereo not given) | 66.4 µM (inactive) | 43.4 µM (inactive) | 23.3 | 20.1 µM (inactive) | 31.3 µM (inactive) | 31.5 µM (inactive) | 26.1 µM (inactive) | 35 µM (inactive) | 16.5 µM (inactive) | 27.7 µM (inactive) | > 100 µM (inactive) | 26.1 µM (inactive) | 34 µM (inactive) | 60.1 µM (inactive) | 20.4 µM (inactive) | 20.1 µM (inactive) | 42.4 µM (inactive) | 77.1 µM (inactive) | 19.3 µM (inactive) | 20 µM (inactive) |
| CCN(C(=O)N[C@@H](Cc1ccccc1)C(=O)N[C@@H](CC(C)C)C(=O)NC)c1ccccc1 | > 100 µM (inactive) | > 100 µM (inactive) | > 100 | > 100 µM (inactive) | > 100 µM (inactive) | > 100 µM (inactive) | > 100 µM (inactive) | > 100 µM (inactive) | > 100 µM (inactive) | > 100 µM (inactive) | > 100 µM (inactive) | > 100 µM (inactive) | > 100 µM (inactive) | – | > 100 µM (inactive) | > 100 µM (inactive) | > 100 µM (inactive) | > 100 µM (inactive) | > 100 µM (inactive) | > 100 µM (inactive) |
| O=C(Nc1cccc(NC(=O)C(=O)C2CCC3=C(Sc4ccccc4N3)C2=O)n1)C(=O)C1CCC2=C(Sc3ccccc3N2)C1=O (stereo not given) | 91.8 µM (inactive) | > 100 µM (inactive) | 30.7 | 32.9 µM (inactive) | 73.1 µM (inactive) | > 100 µM (inactive) | 26.5 µM (inactive) | 68.9 µM (inactive) | 74.6 µM (inactive) | 18.9 µM (inactive) | > 100 µM (inactive) | 43.8 µM (inactive) | 27.4 µM (inactive) | 44.8 µM (inactive) | > 100 µM (inactive) | 41.2 µM (inactive) | 73.6 µM (inactive) | – | 96.4 µM (inactive) | 47.3 µM (inactive) |
| Cc1ccc(S(=O)(=O)NC(=O)Nc2cccc(S(N)(=O)=O)c2)cc1 | > 100 µM (inactive) | > 100 µM (inactive) | > 100 | > 100 µM (inactive) | > 100 µM (inactive) | > 100 µM (inactive) | > 100 µM (inactive) | > 100 µM (inactive) | > 100 µM (inactive) | > 100 µM (inactive) | > 100 µM (inactive) | – | > 100 µM (inactive) | > 100 µM (inactive) | > 100 µM (inactive) | > 100 µM (inactive) | > 100 µM (inactive) | > 100 µM (inactive) | > 100 µM (inactive) | > 100 µM (inactive) |
| CN(C)CCOC1(CC2CCCCC2)CCC(C(C)(C)C)CC1 (stereo not given) | 2.48 µM (inactive) | 5.56 µM (inactive) | 3.75 | 8.71 µM (inactive) | 2.73 µM (inactive) | 2.83 µM (inactive) | 6.84 µM (inactive) | 8.43 µM (inactive) | 1.56 µM (inactive) | 6.61 µM (inactive) | 5.53 µM (inactive) | 6.82 µM (inactive) | 4.1 µM (inactive) | 10.5 µM (inactive) | 6.44 µM (inactive) | 2.3 µM (inactive) | 8.43 µM (inactive) | 12.8 µM (inactive) | 7.8 µM (inactive) | 2.69 µM (inactive) |
| O=C1C(c2c(O)[nH]c3ccc(Cl)cc23)=Nc2ccccc21 | 1.99 µM (inactive) | 3.58 µM (inactive) | 7.73 | 0.352 µM (active) | 3.66 µM (inactive) | 5.68 µM (inactive) | 6.05 µM (inactive) | 9.12 µM (inactive) | 10.6 µM (inactive) | 2.2 µM (inactive) | 8.11 µM (inactive) | 4.09 µM (inactive) | 3.28 µM (inactive) | 5.36 µM (inactive) | 5.55 µM (inactive) | 3.18 µM (inactive) | 10.3 µM (inactive) | 4.23 µM (inactive) | 11.8 µM (inactive) | – |

From ChEMBL document CHEMBL1201862, “PubChem BioAssay data set” (2004)
